From patent US20250304633A1, “PEPTIDE HAVING ANTIMICROBIAL ACTIVITY” (CABOSSE NATURALS NV, priority 2022, published 2025)
Ends that are not written are not given here.

Key:
Format in all cases: cell-based
tested fungal species = experiment: MIC assays, all tested fungal species; settings: all the tested fungal species
Experimental: (§1) The antimicrobial potential of the peptide described herein was compared with the activity of, two other AMPs, TcAMP1 and TcAMP2 as discussed in WO1998027805, and antibiotics or fungicides. Comparative MIC assays were carried out against several bacterial and fungal species (Table 1).
(§2) Peptides according to SEQ ID N° 1, SEQ ID N° 4, and SEQ ID N° 5 were serially diluted in order to create a concentration sequence ranging from 0.39 μg/ml to […].
(§3) Pantoea, Staphylococcus, and Listeria were cultured in Trypticase Soy Broth (TSY) medium consisting of 1.7% casein peptone, 0.3% soy peptone, 0.25% glucose, 0.5% NaCl, 0.25% K2HPO4 and optionally 1.5% agar. Candida cells were cultured in Yeast Extract Peptone Dextrose (YPD) broth medium consisting of 1% yeast extract, 2% peptone, 2% glucose, and optionally 2% agar. Ceratocystis, Botrytis, Leptosphaeria, Mycosphaerella, Sclerotinia, and Verticillium were cultured in Potato Dextrose Agar (PDA) medium consisting of 2.4% Difco pre-mix broth and optionally 1.5% agar.
For the MIC assay bacteria and fungi were grown on agar plates with their respective media. […] The optical density (OD) at 600 nm was measured after one to five days and adjusted to an OD600 of 1. […]
To evaluate MICs, 96-well plates were prepared with the test antimicrobial peptides. […] Results were visually evaluated and MICs determined based on growth or no-growth. […]

Mycosphaerella pinodes = test system: Mycosphaerella pinodes
Experimental: as §1, §2, §3
(§4) For the MIC assay bacteria and fungi were grown on agar plates with their respective media. Pre-cultures were prepared by inoculating either single bacterial colonies or small pieces of fungi in 5 ml of the respective liquid medium. The optical density (OD) at 600 nm was measured after one to five days and adjusted to an OD600 of 1. This cell suspension was used to prepare 1:500 dilutions, corresponding to approximately 2×10^6 microbial cells per ml.
(§5) To evaluate MICs, 96-well plates were prepared with the test antimicrobial peptides. Each well contained 100 μl microbial cell culture, 90 μl culture medium, and 10 μl peptide or control at the corresponding dilution. The plates were incubated overnight (ON) at the optimal growth temperature for each tested organism. Results were visually evaluated and MICs determined based on growth or no-growth.
(§6) MIC assays were conducted in at least two independent replicates and with different peptide starting concentrations.

Pantoea agglomerans = test system: Pantoea agglomerans
Experimental: as §1, §2, §3, §4, §5, §6

[1] = test system: Staphylococcus aureus MRSA
Experimental: as §1, §2, §3, §4, §5, §6

Verticillium dahliae = test system: Verticillium dahliae
Experimental: as §1, §2, §3, §4, §5, §6

Candida albicans = test system: Candida albicans
Experimental: as §1, §2, §3, §4, §5, §6

Leptosphaeria maculans = test system: Leptosphaeria maculans
Experimental: as §1, §2, §3, §4, §5, §6

Botrytis cinerea = test system: Botrytis cinerea
Experimental: as §1, §2, §3, §4, §5, §6

Ceratosystis paradoxa = test system: Ceratosystis paradoxa
Experimental: as §1, §2, §3, §4, §5, §6

Sclerotinia sclerotiorum = test system: Sclerotinia sclerotiorum
Experimental: as §1, §2, §3, §4, §5, §6

Listeria monocytogenes = test system: Listeria monocytogenes
Experimental: as §1, §2, §3, §4, §5, §6

YGRKQYERDPRQQYEQCQRRCESEATEEREQEQCEQRCEREYKEQQRQQEEELQRQ (cysteines drawn unpaired) [SEQ ID No 1]
inhibitory effects in MIC assays (tested fungal species): inhibitory effects against all the tested fungal species
Minimal inhibitory concentration (Mycosphaerella pinodes): 2.8 µg/mL
Minimal inhibitory concentration (Pantoea agglomerans): 2.5 µg/mL
Minimal inhibitory concentration [1]: 3.2 µg/mL
Minimal inhibitory concentration (Verticillium dahliae): 3.85 µg/mL
Minimal inhibitory concentration (Candida albicans): 3.85 µg/mL
Minimal inhibitory concentration (Leptosphaeria maculans): 12.5 µg/mL
Minimal inhibitory concentration (Botrytis cinerea): 3.5 µg/mL
Minimal inhibitory concentration (Ceratosystis paradoxa): 1.9 µg/mL
Minimal inhibitory concentration (Sclerotinia sclerotiorum): 10.4 µg/mL
Minimal inhibitory concentration (Listeria monocytogenes): 1.6 µg/mL
